Measured values from paper PMC9629855, “Development of ASIC1a ligand-gated ion channel drug screening assays across multiple automated patch clamp platforms” (Frontiers in Molecular Neuroscience, 2022).
Where “and” joins values, the source holds several entries; their conditions need not be identical. Equal values may be shown once.

What was measured:
Parameters in all cases: host or cells: CHO (tetracycline-inducible)
hASIC1a [1] = biological target: T1, hASIC1a (Homo sapiens, UniProt P78348); test: cell-based; details: pH 6.5 agonist, QPatch 48 single hole
T1 sequence (P78348 1-528): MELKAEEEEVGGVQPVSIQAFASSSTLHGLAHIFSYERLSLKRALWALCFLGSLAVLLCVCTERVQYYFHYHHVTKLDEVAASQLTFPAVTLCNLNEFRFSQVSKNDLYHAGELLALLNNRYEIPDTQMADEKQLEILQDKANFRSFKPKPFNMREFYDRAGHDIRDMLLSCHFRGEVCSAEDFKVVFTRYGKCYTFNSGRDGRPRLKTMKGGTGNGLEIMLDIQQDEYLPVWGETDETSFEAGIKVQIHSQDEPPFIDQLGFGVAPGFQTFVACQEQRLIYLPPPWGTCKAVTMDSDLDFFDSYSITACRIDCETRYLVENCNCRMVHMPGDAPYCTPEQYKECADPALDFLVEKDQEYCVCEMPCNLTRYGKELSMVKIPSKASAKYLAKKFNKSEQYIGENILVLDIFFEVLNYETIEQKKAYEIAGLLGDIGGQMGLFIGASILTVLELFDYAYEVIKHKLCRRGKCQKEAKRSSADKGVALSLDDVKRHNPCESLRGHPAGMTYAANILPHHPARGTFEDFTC
Experimental: (§1) CHO hASIC1a cells were cultured according to vendor instructions (B-SYS GmbH) and HEK cells using standard in-house methods. Both cell lines were harvested using optimized protocols and re-suspended in serum-free media (Gibco CHO-S-SFM from Thermo Fisher Scientific for CHO cells, and Ex-Cell 302 from Merck Sigma-Aldrich for HEK cells) to obtain a suspension of cells with smooth membranes and little debris, before transfer to the automated cell hotel consisting of a 60 ml plastic container (Sophion SB2050) and a magnetic stir bar to prevent cell clumping. An aliquot of cells is then aspirated into a 1 ml microcentrifuge tube and spun down (typically 150 g for 2.5 min) and the supernatant discarded before a user-defined volume of external solution is added by the robot and the cells re-suspended to achieve the desired final cell suspension density before application to primed QPlates. Cell capture, sealing and whole-cell access was achieved using optimized QPatch protocols before currents were recorded using a holding potential of −60 mV. […] Cells were washed three times with external pH 7.3 solution (5 μl) between applications of activating acidic solution to establish a stable ASIC1a current baseline. […] Each concentration of reference compound was applied to each cell before (i.e., during each pH 7.3 application period) and during each pH stimulus (IC50 mode). Thus, each concentration of test compound was pre-incubated with cells for at least 2 min before, and then during each acidic solution challenge, before wash-off in a neutral pH 7.3 solution that contained the next concentration of the same compound. Cells were allowed at least 2 min between applications of acidic solution to enable ASIC1a receptors to recover from desensitization.
(§2) Concentration-response xC50 curves from Patchliner and QPatch 48 experiments were calculated by plotting %inhibition (antagonists) or activation (pH) data against concentration in Prism software (GraphPad), using the variable sigmoidal dose-response function to fit the Hill equation with theoretical minimum block of 0% and maximum block of 100% and a free constant for Hill slope.
In addition, this protocol is designed to avoid tachyphylaxis associated with a more acidic pH stimulus, and it allows the development of a ligand-gated ASIC1a channel assay that can distinguish between agonists, partial agonists and antagonists. […] Compounds were tested using the cumulative concentration-response assay format shown in Figure 5A, which includes a 2 min pre-incubation period for each concentration to allow test samples to reach and equilibrate with their binding site(s) in the pore or large extracellular binding domain of ASIC1 receptor trimers. Agonist effects can also be detected during this period as membrane current data is recorded after every liquid addition. […] Mean inhibition data for each test sample is plotted against Log[compound] and fit with a concentration-response function.

hASIC1a [2] = biological target: T1, hASIC1a; test: SyncroPatch 384i APC, CHO hASIC1a, puff / stacked puff application; type: cell-based; details: pH 6.5
Experimental: CHO cells expressing ASIC1a (Charles River) were induced using tetracycline 3–6 h prior to dissociation into a cell suspension.
For recordings of stability and pharmacology using a bolus or “puff” application of ligand, 5 μl of the agonist solution was aspirated and applied to the cell; liquid dispense speed can be set between 1 and 100 μl/s, and a setting of 40 μl/s was used in these experiments. Following agonist addition, 50 μl of the total 90 μl volume in each well is then taken up by the tip to remove most of the agonist solution from the cell. […] For stability experiments, pH 6.5 was applied to each cell followed by a wash with pH 7.4 solution and a wait of 140 s to remove agonist and reverse any desensitization, before a second application of pH 6.5 was made. This sequence was repeated 6–7 times on each cell. For pharmacology experiments, ASIC1a responses were evoked 3 times by pH 6.5 application followed by pre-incubation in the inhibitor for 140 s, after which the inhibitor was co-applied with a pH 6.5 stimulus. Cumulative concentration responses were obtained for each well using 3–4 incrementing concentrations of inhibitor. Concentration response curves for each well were constructed and mean ± S.E.M values for IC50 are given.
To assess the pH sensitivity of ASIC1a responses, pipette tips were loaded with 5 μl of pH 7.4 wash solution followed by 5 μl of activating extracellular solution (pH 7.2 to 4.8). For each sweep, the baseline current was recorded for 1 s in pH 7.4 control solution before the application of the 5-μl activating solution, and then the pH 7.4 wash solution was dispensed with a delay of 1 s to allow for recording of channel opening and desensitization in the presence of ligand before ligand wash-off. Application of the wash solution was followed by aspiration of liquid (50 μl of 90 μl total volume) from each well after a delay of 4 s, before a second wash step with pH 7.4 was performed prior to the application of the next activating pH (interval between stimuli 140 s). Each well received an addition of pH 6.5 solution followed by application of a test pH, and this sequence was repeated a second time to enable data from each cell to be normalized to the control pH 6.5 addition. The pH response curve was constructed across multiple wells with replicates of 48. Pharmacology experiments were performed as described above in “puff” application.
Concentration response curves were fit using a Hill Equation. Statistical comparison of IC50 values for Benzamil was performed using a Student’s t test in Igor Pro 8 (Wavemetrics). […] Z-Factor (Z‘) is calculated using the equation: […]

hASIC1a [3] = biological target: T1, hASIC1a; test: QPatch 48 APC, CHO hASIC1a, multi-hole (10 hole X-plate) recordings; type: cell-based; details: multi-hole recordings, QPatch 48
Experimental: as §1, §2
Before employing a more efficient multi-hole assay it is important to establish that this variant of the APC whole-cell recording format returns the same biophysics and pharmacology as single cell recordings. To this end we ran some of the reference compounds detailed above in 10 hole “X-plate” mode on the QPatch 48.

[4] = 1X single hole chip, Stacked Puff
[5] = 4X multi-hole chip, Stacked Puff

Compound	IC50 (hASIC1a [1]; 2 min pre-incubation, read-out: IC50 potency) [µM]	Hill slope (hASIC1a [1])	Hill slope (hASIC1a [2]; 1X single hole chip, Puff)	IC50 (hASIC1a [2]; 1X single hole chip, Puff) [µM]	Hill slope (hASIC1a [2]; [4])	IC50 (hASIC1a [2]; [4]) [µM]	Hill slope (hASIC1a [2]; 4X multi-hole chip, Puff)	IC50 (hASIC1a [2]; 4X multi-hole chip, Puff)	Hill slope (hASIC1a [2]; [5])	IC50 (hASIC1a [2]; [5]) [µM]	Hill slope (Hn) (hASIC1a [3])	IC50 (hASIC1a [3]; read-out: IC50) [µM]
NC(=NCc1ccccc1)NC(=O)c1nc(Cl)c(N)nc1N [Benzamil]	4.66	1.1	1.07 ± 0.02	1.37	1.26 ± 0.03	2.48 ± 0.18	1.18 ± 0.03 and 1.12 ± 0.02	1.43 µM and 1.47 µM	1.12 ± 0.02	2.2 ± 0.08	1.18	3.49
N=C(N)NC(=O)c1nc(Cl)c(N)nc1N [Amiloride]	–	0.9	1.20 ± 0.05	–	1.39 ± 0.02	–	1.19 ± 0.02 and 1.14 ± 0.01	–	1.24 ± 0.02	–	0.91	–
